Test results from patent US20260217727A1, “COMPOUNDS DERIVED FROM DIHYDROPIRIDINES, PHARMACEUTICAL COMPOSITIONS COMPRISING SAID COMPOUNDS AND METHOD OF TREATMENT OF MUSCLE DISORDERS COMPRISING ADMINISTRATION OF SAID COMPOSITIONS” (UNIVERSIDAD DE CHILE, priority 2023, published 2026).
“Also recorded” adds a separate entry of the source. Blank lines part the entries; values can stand above or below the compound they belong to.

Key:
[1] = molecular target: T1, Cav1.1 channels (dihydropyridine receptors) (Mus musculus, UniProt Q02789); details: earlier results, stated in words; cited from earlier work
T1 construct: endogenous in cells; host or cells: single skeletal muscle fibers isolated from C57 mouse flexor digitorum brevis (FDB) muscle
T1 sequence (Q02789 whole entry): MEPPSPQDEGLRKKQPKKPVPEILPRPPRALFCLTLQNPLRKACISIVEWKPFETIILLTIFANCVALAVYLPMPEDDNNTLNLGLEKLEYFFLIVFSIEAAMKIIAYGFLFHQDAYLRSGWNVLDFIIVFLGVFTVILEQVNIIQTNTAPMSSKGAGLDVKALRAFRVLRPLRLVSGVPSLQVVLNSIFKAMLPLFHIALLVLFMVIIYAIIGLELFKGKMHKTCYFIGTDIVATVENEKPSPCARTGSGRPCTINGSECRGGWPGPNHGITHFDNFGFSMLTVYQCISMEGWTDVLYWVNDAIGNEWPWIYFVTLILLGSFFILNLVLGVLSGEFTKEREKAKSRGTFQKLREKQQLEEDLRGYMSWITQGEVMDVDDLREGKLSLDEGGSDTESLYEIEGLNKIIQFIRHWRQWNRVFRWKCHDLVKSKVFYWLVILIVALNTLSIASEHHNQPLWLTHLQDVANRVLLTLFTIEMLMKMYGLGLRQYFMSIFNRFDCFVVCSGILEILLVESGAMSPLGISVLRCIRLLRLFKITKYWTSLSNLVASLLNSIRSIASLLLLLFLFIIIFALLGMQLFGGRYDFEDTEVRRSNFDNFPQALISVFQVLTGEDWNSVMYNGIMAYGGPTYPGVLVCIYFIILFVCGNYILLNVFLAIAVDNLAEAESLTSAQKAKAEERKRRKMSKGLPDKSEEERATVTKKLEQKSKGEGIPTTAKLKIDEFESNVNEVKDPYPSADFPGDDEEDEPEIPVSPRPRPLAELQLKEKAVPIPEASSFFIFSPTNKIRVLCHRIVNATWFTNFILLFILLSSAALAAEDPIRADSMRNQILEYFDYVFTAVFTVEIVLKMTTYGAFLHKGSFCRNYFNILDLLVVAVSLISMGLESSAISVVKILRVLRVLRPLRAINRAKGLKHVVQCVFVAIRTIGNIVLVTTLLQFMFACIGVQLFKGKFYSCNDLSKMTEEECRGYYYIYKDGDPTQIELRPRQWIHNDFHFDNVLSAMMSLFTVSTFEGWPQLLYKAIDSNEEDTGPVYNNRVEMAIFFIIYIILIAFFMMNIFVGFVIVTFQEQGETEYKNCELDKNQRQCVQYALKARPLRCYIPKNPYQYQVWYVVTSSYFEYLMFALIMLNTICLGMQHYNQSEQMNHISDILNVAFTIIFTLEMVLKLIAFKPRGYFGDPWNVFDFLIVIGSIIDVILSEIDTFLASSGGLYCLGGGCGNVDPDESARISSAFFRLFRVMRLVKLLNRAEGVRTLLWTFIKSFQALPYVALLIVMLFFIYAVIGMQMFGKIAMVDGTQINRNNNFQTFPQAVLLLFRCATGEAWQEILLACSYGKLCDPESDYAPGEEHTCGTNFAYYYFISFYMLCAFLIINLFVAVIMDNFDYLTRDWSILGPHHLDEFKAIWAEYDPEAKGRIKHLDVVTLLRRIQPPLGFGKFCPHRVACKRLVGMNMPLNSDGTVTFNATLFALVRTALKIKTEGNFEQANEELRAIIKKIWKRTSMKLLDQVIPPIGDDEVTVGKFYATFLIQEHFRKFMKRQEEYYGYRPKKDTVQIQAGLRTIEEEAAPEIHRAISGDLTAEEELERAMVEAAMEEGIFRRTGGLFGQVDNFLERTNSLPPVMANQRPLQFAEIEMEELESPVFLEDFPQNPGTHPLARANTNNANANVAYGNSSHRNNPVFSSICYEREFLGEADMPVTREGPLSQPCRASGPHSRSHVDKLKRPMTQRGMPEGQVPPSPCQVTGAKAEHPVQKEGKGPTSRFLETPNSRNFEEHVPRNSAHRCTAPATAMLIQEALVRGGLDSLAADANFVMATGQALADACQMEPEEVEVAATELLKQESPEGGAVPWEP
T1 sequence (Q8R3Z5 whole entry partner): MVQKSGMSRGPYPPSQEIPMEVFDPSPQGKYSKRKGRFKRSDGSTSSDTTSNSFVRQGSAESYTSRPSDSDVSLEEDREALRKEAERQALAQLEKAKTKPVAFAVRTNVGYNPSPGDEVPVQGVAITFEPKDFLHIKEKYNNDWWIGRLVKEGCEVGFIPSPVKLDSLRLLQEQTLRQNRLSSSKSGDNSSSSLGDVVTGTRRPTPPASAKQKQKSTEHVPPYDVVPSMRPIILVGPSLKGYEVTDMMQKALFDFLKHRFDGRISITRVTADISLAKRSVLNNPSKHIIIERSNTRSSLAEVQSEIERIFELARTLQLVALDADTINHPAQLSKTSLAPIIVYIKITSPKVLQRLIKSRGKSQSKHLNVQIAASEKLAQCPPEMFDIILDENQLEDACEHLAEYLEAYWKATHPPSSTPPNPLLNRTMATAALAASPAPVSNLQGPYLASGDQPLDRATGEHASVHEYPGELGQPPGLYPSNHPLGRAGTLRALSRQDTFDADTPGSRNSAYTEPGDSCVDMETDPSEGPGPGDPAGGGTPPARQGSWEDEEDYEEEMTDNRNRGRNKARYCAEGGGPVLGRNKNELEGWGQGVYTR
T1 sequence (O08532 25-1103 partner): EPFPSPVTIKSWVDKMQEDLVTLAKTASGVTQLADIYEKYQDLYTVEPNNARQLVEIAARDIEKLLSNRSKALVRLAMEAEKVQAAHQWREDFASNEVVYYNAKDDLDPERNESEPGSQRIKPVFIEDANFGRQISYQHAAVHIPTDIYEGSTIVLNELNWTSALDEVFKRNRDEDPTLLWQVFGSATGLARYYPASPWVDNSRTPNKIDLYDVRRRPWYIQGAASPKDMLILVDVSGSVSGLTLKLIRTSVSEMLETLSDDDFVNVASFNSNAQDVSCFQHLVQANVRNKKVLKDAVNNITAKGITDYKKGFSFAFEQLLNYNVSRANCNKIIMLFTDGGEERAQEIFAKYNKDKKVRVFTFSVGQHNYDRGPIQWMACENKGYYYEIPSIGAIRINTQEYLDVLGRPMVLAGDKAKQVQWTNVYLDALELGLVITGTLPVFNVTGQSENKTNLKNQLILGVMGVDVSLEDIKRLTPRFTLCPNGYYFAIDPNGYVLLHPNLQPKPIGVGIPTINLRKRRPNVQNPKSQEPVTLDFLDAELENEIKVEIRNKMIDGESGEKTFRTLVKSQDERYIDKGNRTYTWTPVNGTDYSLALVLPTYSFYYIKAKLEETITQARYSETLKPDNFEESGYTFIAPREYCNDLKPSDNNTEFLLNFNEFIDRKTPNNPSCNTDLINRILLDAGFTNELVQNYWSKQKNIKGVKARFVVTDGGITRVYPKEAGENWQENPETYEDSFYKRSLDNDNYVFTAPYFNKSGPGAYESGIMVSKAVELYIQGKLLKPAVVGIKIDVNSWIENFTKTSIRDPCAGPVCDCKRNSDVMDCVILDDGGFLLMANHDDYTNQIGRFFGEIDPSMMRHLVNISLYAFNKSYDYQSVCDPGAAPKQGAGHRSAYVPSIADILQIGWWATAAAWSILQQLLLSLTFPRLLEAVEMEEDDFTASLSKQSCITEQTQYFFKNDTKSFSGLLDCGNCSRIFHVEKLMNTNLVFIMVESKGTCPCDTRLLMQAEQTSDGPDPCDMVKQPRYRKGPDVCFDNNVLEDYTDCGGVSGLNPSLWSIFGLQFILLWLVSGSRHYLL
T1 sequence (O70578 whole entry partner): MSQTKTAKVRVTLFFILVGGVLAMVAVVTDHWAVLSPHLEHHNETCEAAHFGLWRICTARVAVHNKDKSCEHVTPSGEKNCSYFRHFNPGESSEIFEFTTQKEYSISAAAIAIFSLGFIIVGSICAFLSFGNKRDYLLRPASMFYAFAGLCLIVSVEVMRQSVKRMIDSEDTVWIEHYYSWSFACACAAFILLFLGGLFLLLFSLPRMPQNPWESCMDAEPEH

fdb muscle fibers [2] = details: earlier results of the inventors; cited from earlier work
[3] = tested on: muscle fibers of normal mice; experiment: qPCR of proinflammatory genes in muscle fibers exposed to extracellular ATP; format: cell-based, mouse; details: 300 μM extracellular ATP for 2 h
Protocol: Total RNA from the isolated muscle fiber culture was extracted using TRIzol (Invitrogen) according to the manufacturer's protocol. The cDNA was obtained by reverse transcription from 1 μg of total RNA, using the enzyme SuperScript II (Invitrogen) according to the manufacturer's protocol. Real-time qPCR assays were performed using a thermocycler (Stratagene Mx300P, Agilent) according to the following protocol. The reaction mix will be given by 1 μL 10×dNTPs, 0.5 μL sense primer (10 pmol/μL), 0.5 μL antisense primer (10 pmol/μL), 4 μL EVA Green (Invitrogen) and 1 μL cDNA. The final volume of the mix was brought to 20 μL by adding nuclease-free water. All primers have an optimal amplification efficiency (between 90-110%). In any case, the analysis of the data was carried out considering a correction of the amplification cycle of each gene according to the amplification efficiency of the primers. The thermocycling conditions were the following: 1 cycle of 12 min at 95° C., followed by 40 cycles of 15 at 95° C. […] The Ct value was determined by the MXPro software when the fluorescence level is 25% higher than the basal fluorescence. […]
Increases in proinflammatory markers have been reported in the muscles of older adults, as part of the process of losing muscle mass. Therefore, the effect of chronic exposure to high levels of extracellular ATP on mRNA levels of proinflammatory genes was evaluated. […]

[4] = molecular target: T1, Cav1.1 channels (dihydropyridine receptors); experiment: Whole cell voltage-clamp measurement of L-type Ca2+ currents in isolated fdb muscle fibers; format: cell-based; details: L-type calcium peak current, mouse skeletal muscle fibers, control = maximum current without drug, read-out: % inhibition of Ca^2+ current
fdb muscle fibers [5] = experiment: ATP release from fdb muscle fibers after 20 Hz electrical stimulation (luciferin/luciferase); format: cell-based, mouse; details: pre-incubation 10 μM for 30 min
Protocol: Isolation of skeletal muscle fibers was performed from C57BL/J6 mice between 8 and 10 weeks of age. Isolated fibers were obtained from the flexor digitorum brevis (FoB) and Gastrocnemius muscle by enzymatic digestion for 90 min with 400 U/mL type II collagenase (Worthington Biochemicals Corp., Lakewood, NJ, USA) and mechanical dissociation with Pasteur pipettes, as previously described (Casas et.al, 2010). The isolated fibers were seeded in Petri dishes coated with a layer of Matrigel in Dulbecco's modified Eagle's culture medium (DMEM), supplemented with 10% horse serum, 50 U/mL penicillin and […] streptomycin. Cell cultures were used approximately 20 h after the fiber seeding process. All protocols were previously approved by the Bioethics Committee of the Faculty of Medicine of the University of Chile. […]
Extracellular ATP concentrations were determined using the CellTiter-Glo® Luminescent Cell Viability Assay Kit (Promega). […] After incubating for 10 min in the dark at room temperature, the samples were quantified in an FB12 (Berthold) luminometer. […] RNA normalization was preferred over total protein normalization since adult fiber cultures were seeded on a matrigel sheet, which has a large amount of protein and could alter the quantification process. […]

aged mice [6] = experiment: Incremental strength test (weightlifting) in aged mice; format: in vivo, mouse
Protocol: The muscle function of aged mice (between 19 and 21 months of age) was assessed with an incremental strength test (weightlifting) and with an incremental treadmill running test. The measurement was made after 12 days of treatment with MP-2 (1 mg/Kg/day) administered via intraperitoneal injection. As a control, vehicle-injected mice were used in the same manner as drug-injected mice. Recovery of muscle function can be observed after treatment. Data were analyzed as the change in test performance at the end of treatment relative to performance at the start of treatment for each mouse. It is observed that the treatment improves the strength parameters more than 4 times with respect to the control. […] The mean±SEM is plotted. N=5 for each group, *: p<0.05
Two functional tests were performed in control (saline-injected) and MP-2-treated (daily intraperitoneal injections of 1 mg/Kg MP-2 for 12 days) mice.

aged mice [7] = experiment: Incremental treadmill running test (endurance) in aged mice; format: in vivo, mouse
Protocol: The standardization of this test that evaluates resistance and strength was carried out in the treadmill equipment for rodents. The test consists of 5 sessions where the animals were acclimatized for 5 minutes at the equipment's minimum speed of 0.3 Km/h and the number of shots of compressed air that keep the animal trotting is counted. Once the acclimatization process was finished, the animals were evaluated in an incremental test consisting of 2-minute ramps at the minimum speed and then gradually increasing 0.1 Km/h after 2 minutes until the animal could no longer run. This maximum effort test is only performed once per session and is considered finished when the animal reaches the bottom of the ramp and accumulates 10 shots of compressed air in a period of 10 seconds.
The muscle function of aged mice (between 19 and 21 months of age) was assessed with an incremental strength test (weightlifting) and with an incremental treadmill running test. The measurement was made after 12 days of treatment with MP-2 (1 mg/Kg/day) administered via intraperitoneal injection. As a control, vehicle-injected mice were used in the same manner as drug-injected mice. Recovery of muscle function can be observed after treatment. Data were analyzed as the change in test performance at the end of treatment relative to performance at the start of treatment for each mouse. […]

[8] = aged mice 19-21 months, 1 mg/Kg/day i.p. for 12 days, change end vs start of treatment

Compound: COC(=O)C1=C(C)NC(C)=C([N+](=O)[O-])[C@H]1c1ccccc1C(F)(F)F [(S)-(−)-BayK-8644]
effect on Ca^2+ current through the DHPR channel (earlier work) [1]: increases Ca^2+ current
ATP outflow after electrical stimulation of the muscle fiber (earlier work) (fdb muscle fibers [2]): also inhibits ATP release

Compound: Nc1ncnc2c1ncn2[C@@H]1O[C@H](COP(=O)(O)OP(=O)(O)OP(=O)(O)O)[C@@H](O)[C@H]1O [ATP]
mRNA levels of proinflammatory genes (TNF-α and IL-6) [3]: increase

inhibition at 10 µM [4]: 50 ± 8%
inhibition of ATP outflow induced by 20 Hz electrical stimulation (fdb muscle fibers [5]; listed as MP2): inhibits in a similar way as nifedipine
Compound: COC(=O)C1=C(C)NC2=C(C(=O)OC2)C1c1ccccc1[N+](=O)[O-] (stereo not drawn) [MP-2, methyl 2-methyl-4-(2-nitrophenyl)-5-oxo-1,4,5,7-tetrahydrofuro [3,4-b]pyridine-3-carboxylate]
inhibition of ATP outflow induced by 20 Hz electrical stimulation (fdb muscle fibers [5]): inhibits the outflow of ATP; also recorded: indistinguishable from that of nifedipine
improvement of strength parameters with respect to the control (aged mice [6]; [8]): more than 4 times
muscle strength in aged mice (aged mice [6]; aged mice (age>18 months)): substantially improves their muscle strength
improvement in weight test (measure of strength) (aged mice [6]; daily i.p. 1 mg/Kg for 12 days): 64.4%
increase in Endurance test (incremental treadmill test) over the control (aged mice [7]; [8]): ~5 times
improvement in treadmill test (measure of resistance) (aged mice [7]; daily i.p. 1 mg/Kg for 12 days): 25%

inhibition at 10 µM [4]: 32.6 ± 8%
Compound: COC(=O)C1=C(C)NC(C)=C(C(=O)OCCN(C)Cc2ccccc2)C1c1cccc([N+](=O)[O-])c1 (stereo not drawn) [Nicardipine]

inhibition at 10 µM [4]: 48 ± 10%
Compound: COCCOC(=O)C1=C(C)NC(C)=C(C(=O)OC(C)C)C1c1cccc([N+](=O)[O-])c1 (stereo not drawn) [Nimodipine]

inhibition at 10 µM [4]: 14.3 ± 7%
Compound: COC(=O)C1=C(C)NC(C)=C(C(=O)OCC(C)C)C1c1ccccc1[N+](=O)[O-] (stereo not drawn) [Nisoldipine]

inhibition at 10 µM [4]: 47.6 ± 2%
Compound: CCOC(=O)C1=C(C)NC(C)=C(C(=O)OC)C1c1cccc([N+](=O)[O-])c1 (stereo not drawn) [Nitrendipine]
